Read-outs that look alike come from different tables or passages of the source.
Tests used:
[1] = test system: MCF-7 human breast cancer cell line; test: 50% inhibitory concentration of antitumor agents, living cell count with trypan blue; format: cell-based; settings: MCF7, 48 h, read-out: 50% inhibitory concentration of antitumor agents against MCF-7
Protocol: The cell line was prepared to 1×10^5 cells/ml and then cultured on a 6-well plate under conditions of 37° C. and 5% CO2 for one day. Then, the cell was treated with each antitumor agent at final concentrations of 0.001 μM, 0.01 μM, 0.1 μM, 1.0 μM, and 10 μM, followed by 2-days culture under conditions of 37° C. and 5% CO2. After removal of the culture medium, the cell was washed twice with PBS(−), to which 0.25% Trypsin-EDTA was then added in order to detach the cell from the plate. The thus detached cell was suspended with PBS(−) to a volume of 100 to which 10 μl of 0.4% trypan blue stock solution was then added, and the mixture was measured for counts of living cells using a hemocytometer. The rate of living cells in case that the cell was treated with each antitumor agent (i.e., a chemotherapeutic) was calculated, wherein the number of living cells in case that the cell was not treated with each antitumor agent was designated at 100%. 50% inhibitory concentration was roughly estimated based on the obtained values, and each antitumor agent was prepared to have a concentration around the determined 50% inhibitory concentration, and thereafter procedures similar to the above were further performed in order to calculate a more specific 50% inhibitory concentration.
MCF-7 cell line was prepared to 1×10^5 cells/mL, and then cultured on a 6-well plate under conditions of 37° C. and 5% CO2 for one day. […] After removal of the culture medium, the cell was washed with PBS(−) twice, to which 0.25% Trypsin-EDTA was added in order to detach the cell from the plate. The detached cell was suspended in PBS(−) to a volume of 100 μl, to which 10 μl of 0.4% trypan blue stock solution was further added. The mixture was measured for counts of living cells using a hemocytometer. […] The IC50 values of respective antitumor agents in each type of cancer cells were calculated by using the same procedures.

[2] = test system: human breast cancer cell line MDA-MB-157; test: ADCC activity, chromium-51 release; format: cell-based; settings: 1 μg antibody, mouse lymphocytes 2×10^5 cells, 10^3 target cells, 4 hours
Protocol: The above-selected anti-CAPRIN-1 monoclonal antibodies #1 to #11 were evaluated for their cytotoxic activities against cancer cells (ADCC activity). Hybridomas producing the monoclonal antibodies #1 to #11 were each cultured using hybridoma SFM medium (Invitrogen). The thus obtained supernatant was purified using Hitrap ProteinA Sepharose FF (GE HealthCare), replaced with PBS(−), and then filtered through 0.22 μm filter (Millipore). The obtained filtrates were used as antibodies for assay. The human breast cancer cell line MDA-MB-157 (10^6 cells) was collected in a 50-ml centrifuge tube, to which 100 μCi chromium(Cr)-51 was then added, and incubated at 37° C. for 2 hours. Subsequently, the cells were washed 3 times with RPMI1640 medium containing 10% FBS, and then dispensed into each well of a 96-well V-bottom plate at 10^3 cells per well. The thus obtained cells are used as target cell. The above purified antibodies (1 μg each) were added to the cells. Separately, mouse lymphocytes separated from the mouse spleen were further added (2×10^5 cells) and then cultured under conditions of 37° C. and 5% CO2 for 4 hours. After culture, the amount of chromium(Cr)-51 released from cytotoxically impaired tumor cells in a culture supernatant was measured, so that the ADCC activity of each anti-CAPRIN-1 antibody against cancer cells was calculated. […] On the other hand, similar procedures were performed using the monoclonal antibodies (which were prepared in Example 2) reactive with the CAPRIN-1 protein itself, but not reactive with the surface of cancer cells, no cytotoxic activity was observed (see FIG. 1). […] Similarly, the anti-CAPRIN-1 antibodies were examined for ADCC activity against other human cancer cell lines including glioma cell lines (T98G and U373), lung cancer cell lines (A549 and QG56), renal cancer cell lines (Caki-1 and ACHN), a uterine cervix cancer cell line (SW756), a bladder cancer cell line (T24), an esophageal cancer cell line (KYSE180), gastric cancer cell lines (MNK28 and MNK45), a colorectal cancer cell line (SW480), a leukemia cell line (AML5), and a lymphoma cell line (Ramos).

[3] = test system: MCF-7 human breast cancer cell line; test: In vivo combination therapy in tumor-bearing nude mice transplanted with MCF-7; settings: experimental section 1 (anti-CAPRIN-1 antibody = #2, 5 mg/kg i.p.), day 26, mouse PBMC given to all groups
Protocol: IgG2b (R&D systems, catalog No. MAB11291)) were administered in combination, a group to which an antitumor agent and anti-CAPRIN-1 monoclonal antibody were administered in combination, and a group to which control (PBS(−) was administered. In addition, mouse PBMC was administered to all the administration groups. […] PBMC separated from Balb/c mouse spleen was intravenously administered to each mouse at 1×10^7 cells/0.2 mL (RPMI1640) on days 0, 8, and 15 after the start of the experiment. […] PBMC separated from Balb/c mouse spleen was intravenously administered to each mouse at 1×10^7 cells/0.2 mL (RPMI1640) on days 0, 8, and 15 after the start of the experiment. Paclitaxel was intraperitoneally administered to each of 5 tumor-bearing mice at 15 mg/kg/shot on days 0 and 3 after the start of the experiment. PBMC separated from Balb/c mouse spleen was intravenously administered to each mouse at 1×10^7 cells/0.2 mL (RPMI1640) on days 0, 8, and 15 after the start of the experiment. Docetaxel was intraperitoneally administered to each of 5 tumor-bearing mice at 10 mg/kg/shot on days 0 and 3 after the start of the experiment. PBMC separated from Balb/c mouse spleen was intravenously administered to each mouse at 1×10^7 cells/0.2 mL (RPMI1640) on days 0, 8, and 15 after the start of the experiment. […]

[4] = MCF-7, 2-days culture with agent, living cells counted with trypan blue

IC50 [1, 4] [nM] | Molecule | ADCC activity (cytotoxic activity) against MDA-MB-157 [2] [%] | other results
0.1 | CC(=O)O[C@@]12CO[C@@H]1C[C@H](O)[C@@]1(C)C(=O)[C@H](O)C3=C(C)[C@@H](OC(=O)[C@H](O)[C@@H](NC(=O)OC(C)(C)C)c4ccccc4)C[C@@](O)([C@@H](OC(=O)c4ccccc4)[C@H]21)C3(C)C [Docetaxel, docetaxel] |  | 
 | O=P1(N(CCCl)CCCl)NCCCO1 (centres unmarked) [Cyclophosphamide, cyclophosphamide] |  | IC50 [1]: 30 nM
10 | CC(=O)O[C@H]1C(=O)[C@@]2(C)[C@H]([C@H](OC(=O)c3ccccc3)[C@]3(O)C[C@H](OC(=O)[C@H](O)[C@@H](NC(=O)c4ccccc4)c4ccccc4)C(C)=C1C3(C)C)[C@]1(OC(C)=O)CO[C@@H]1C[C@@H]2O [Paclitaxel, paclitaxel] |  | 
20 | CCC1=C[C@@H]2CN(C1)Cc1c([nH]c3ccccc13)[C@@](C(=O)OC)(c1cc3c(cc1OC)N(C)[C@H]1[C@@](O)(C(=O)OC)[C@H](OC(C)=O)[C@]4(CC)C=CCN5CC[C@]31[C@@H]54)C2 [Vinorelbine, vinorelbine] |  | 
 | monoclonal antibody #1: mouse anti-CAPRIN-1 monoclonal antibody; heavy chain variable region SEQ ID NO: 43, light chain variable region SEQ ID NO: 47 (antibody, listed as Mus musculus, V domains shown) VH: MEWSGVFIFLLSGTAGVLSEVQLHQFGAELVKPGASVKISCKASGYTFTDYNMDWVKQSHGKSLEWIGDINPNYDSTSYNQKFKGKATLTVDKSSSTAYMELRSLTSEDTAVYYCARSRSYDYEGFAYWGQGTLVTVSAAKTTPPSVY VL: MSVLTQVLGLLLLWLTGARCDIQMTQSPASLSASVGETVTITCRASGNIHNYLAWYQQKQGKSPQLLVYNAKTLADGVPSRFSGSGSGTQYSLKINSLQPEDFGSYYCQHFWSTLTFGAGTKLELKRADAAPTVSNPYD | 22.1 | 
 | monoclonal antibody #2: mouse anti-CAPRIN-1 monoclonal antibody; heavy chain variable region SEQ ID NO: 43, light chain variable region SEQ ID NO: 53 (antibody, listed as Mus musculus, V domains shown) VH: MEWSGVFIFLLSGTAGVLSEVQLHQFGAELVKPGASVKISCKASGYTFTDYNMDWVKQSHGKSLEWIGDINPNYDSTSYNQKFKGKATLTVDKSSSTAYMELRSLTSEDTAVYYCARSRSYDYEGFAYWGQGTLVTVSAAKTTPPSVY VL: AVLRCSRGLLVIWISDIQLTQSPSSLAVTAGEKVTMSCKSSQSLLWSVNQKNYLSWYQQKQRQPPKLLIYGASIRESWVPDRFTGSGSGTDFTLTISNVHAEDLAVYYCQHNHGSFLPSRSEQVPSWRSNNR | 29.1 | tumor volume relative to PBS(−) control group designated at 100% [3]: about 56%
 | monoclonal antibody #6: mouse anti-CAPRIN-1 monoclonal antibody; heavy chain variable region SEQ ID NO: 73, light chain variable region SEQ ID NO: 77 (antibody, listed as Mus musculus, V domains shown) VH: DILQASGYSFTGYTMNWVKQSHGKNLEWIGLINPYNGGTSYNQKFKGKATLTVDKSSSTAYMELLSLTSEDSAVYYCARWGVWSAMDYWGQGTTVTVSSK VL: DRVSITCKASQNVRTAVAWYQQKPRQSPKALIYLASNRDTGLPDRFPGRGSGTDFTLNITNVQSEDLEDYFCLQHCNYPNEFRGCTKVPI | 30.2 | 

— patent publication US9180187B2, “Medicament for treating and/or preventing cancer” (TORAY INDUSTRIES, INC., priority 2010, dated 2015)
